Format in all cases: cell-based
The subject of one assay is A2780 ovarian cells. Put plainly: A2780 Ovarian Cell Proliferation Assay in Lipid Reduced Medium, with and without Palmitate (MTT). Particulars: Homo sapiens, 10% lipid-reduced serum, 96 h. As to the method:
The biological assays described below correspond to comparative assays for ovarian cell proliferation.
2500 cells were seeded in a 96-well clear well plate in 200 μL RPM11640 with 10% Fetal Calf Serum (Hyclone), and incubated at 37° C., 5% CO2, Blanks were wells without cells. The next day the culture medium was aspirated and replaced by 160 μL culture medium with 10% Lipid-Reduced Serum (LRS, Hyclone). […] After 96 h incubation, an MTT assay was performed.
2500 cells were seeded in a 96-well clear well plate in 200 μL RPM11640 with 10% Fetal Calf Serum (Hyclone), and incubated at 37° C., 5% CO2. Blanks were wells without cells. The next day the culture medium was aspirated and replaced by 160 μL culture medium with 10% Lipid-Reduced Serum (LRS, Hyclone). 20 μL test compound (at concentrations of 30 μM, 10 μM, 3 μM, 1 μM, 0.30 μM, 0.10 μM, 0.03 μM and 0.01 μM)/DMSO dilution followed by 20 μL ethanol-BSA solution were added to a final concentrations of 0.2% DMSO, 0.2% fatty-acid-free BSA, 0.25% ethanol. After 96 h incubation an MTT assay was performed.
Raw data generated by the instrument were normalized to % Controlmin values, which were calculated as: % Controlmin=100*(x−mLC)/(mHC−mLC)
where mLC and mHC were the means of the low control wells and high control wells on the plate, after manual exclusion of outliers. A plot of Controlmin versus test compound concentration was fitted to a 4-parameter logistic curve using a non-linear least squares regression method.

For assay [1], the system named is PC-3M-Luc-C6 prostate cells. Put plainly: In Vitro PC-3M-Luc-C6 Prostate Cell Proliferation Assay in Lipid Reduced Medium. Particulars: Prostate cell, read-out: pIC50 PC-3M-Luc-C6 prostate cell (converted); 10% lipid reduced serum, 96 h, ATP-glow luminescence. The procedure:
PC-3M-Luc-C6 prostate cells were obtained from Xenogen Corporation. Cells were maintained in MEM supplemented with 10% Fetal Calf Serum (FCS, Hyclone), 2 mM glutamine, 1 mM sodium pyruvate, 1% BME vitamins (available from for example, Sigma Aldrich), 0.1 mM non Essential Amino Acid and 50 μg/ml Gentamicin. The cells were passaged twice a week.
The next day 10 μl test compound/DMSO diluted in medium was added (3E-5M, 1E-5M, 3E-6M,1E-6M, 3E-7M, 1E-7M, 3E-8M, 1E-8M final concentration). Compounds were tested in duplicate. After 96 h incubation at 37° C., 5% CO2 25 μl ATP-glow mix was added. The plate was incubated for 30 min at 37° C. and luminescence was measured with the Envision.
(§1) Analysis: Determination of pIC50 Values
(§2) pIC50 values were calculated as follows. Raw data generated by the instruments were normalized to % Controlmin values, which were calculated as: % Controlmin=100*(x−mLC)/(mHC−mLC),
(§3) where mLC and mHC are the means of the low control wells and high control wells on the plate, after manual exclusion of outliers. The relation between the % Controlmin values and concentration was fitted to a 4-parameter logistic curve using a non-linear least squares regression method to determine the pIC50 value. Outlying data points were excluded manually to get a correct fit. The pIC50 corresponds to −log 10(IC50), if the IC50 is expressed in molar units (http://www.ncbi.nlm.nih.qovibooks/NBK91994). The IC50 parameter was always determined by non-linear regression, but one or more of the other parameters may have been held fixed on a relevant input value, such as 0 for the bottom values.

Assay [2] deals with LNCaP_Vancouver prostate cells. Put plainly: In Vitro LNCaP Vancouver Prostate Cell Proliferation Assay in Lipid Reduced Medium. Conditions: Prostate cell; 10% lipid reduced serum, 96 h, ATP-glow luminescence; read-out: pIC50 LNCaP_Vancouver prostate cell (converted). The procedure:
LNCaP_Vancouver prostate cells were obtained from the Vancouver Prostate Cancer Centre.
The next day 10 μl of test compound/DMSO diluted in medium was added (3E-5M, 1E-5M, 3E-6M,1E-6M, 3E-7M, 1E-7M, 3E-8M, 1E-8M final concentration). Compounds were tested in duplicate. After 96 h incubation at 37° C., 5% CO2 25 μl ATP-glow mix was added. The plate was incubated for 30 min at 37° C. and luminescence was measured with the Envision.
as §1, §2, §3

[3] abbreviates: no palmitate, read-out: pIC50 Without Palmitate (converted).
Where [4] appears, read: 25 μM palmitate added (control), read-out: pIC50 With Palmitate (converted).

Read-outs that look alike come from different tables or passages of the source. Some results are limits rather than exact numbers.

For `CC1(C)N=C(c2ccc(-c3ccc4cccc(F)c4c3)cc2F)N(C[C@@H]2CCN(C(=O)C3CC3)C2)C1=O` [Compound 67, (R)-1-((1-(cyclopropanecarbonyl)pyrrolidin-3-yl)methyl)-2-(2-fluoro-4-(8-fluoronaphthalen-2-yl)phenyl)-4,4-dimethyl-1H-imidazol-5(4H)-one], the IC50 with A2780 ovarian cells (setting [3]) was approximately 195 nM; in assay [1], 145 nM; in assay [2], 407 nM.
For the compound `CC1(C)N=C(c2ccc(-c3ccc4cc(F)ccc4c3)cc2)N(C[C@@H]2CCN(C(=O)C3CC3)C2)C1=O` [Compound 30, (R)-1-((1-(cyclopropanecarbonyl)pyrrolidin-3-yl)methyl)-2-(4-(6-fluoronaphthalen-2-yl)phenyl)-4,4-dimethyl-1H-imidazol-6(4H)-one], the IC50 with A2780 ovarian cells (setting [4]) was more than 10000 nM; in the assay with A2780 ovarian cells (setting [3]), 1230 nM; in assay [1], 490 nM; in assay [2], 3390 nM.
For `CC1(C)N=C(c2ccc(-c3nc4ccccc4o3)cc2F)N(C[C@@H]2CCN(C(=O)C3CC3)C2)C1=O` [Compound 51, (R)-2-(4-(benzo[d]oxazol-2-yl)-2-fluorophenyl)-1-((1-(cyclopropanecarbonyl)pyrrolidin-3-yl)methyl)-4,4-dimethyl-1H-imidazol-5(4H)-one], the IC50 is more than 10000 nM in the assay with A2780 ovarian cells (setting [4]), 288 nM with A2780 ovarian cells (setting [3]), 324 nM in assay [1] and 794 nM in assay [2].
For `COCC1(C)N=C(c2ccc(-c3ccc4c(cnn4C)c3)cc2)N(C[C@@H]2CCN(C(=O)C3CC3)C2)C1=O` (mixture of isomers) [Compound 10, (4RS)-1-(((R)-1-(cyclopropanecarbonyl)pyrrolidin-3-yl)methyl)-4-(methoxymethyl)-4-methyl-2-(4-(1-methyl-1H-indazol-5-yl)phenyl)-1H-imidazol-5(4H)-one], in that order: more than 10000 nM, approximately 741 nM, 933 nM and 3630 nM.
For `CC1(C)N=C(c2ccc(-c3cccc4ncccc34)cc2)N(C[C@@H]2CCN(C(=O)C3CC3)C2)C1=O` [Compound 31, (R)-1-((1-(cyclopropanecarbonyl)pyrrolidin-3-yl)methyl)-4,4-dimethyl-2-(4-(quinolin-5-yl)phenyl)-1H-1-imidazol-5(4H)-one], in that order: more than 10000 nM, approximately 1000 nM, approximately 617 nM and 912 nM.
For `Cn1ncc2cc(-c3ccc(C4=NC(C)(C)C(=O)N4CC4CN(C(=O)C5(O)CC5)C4)c(F)c3)ccc21` [Compound 78, 2-(2-fluoro-4-(1-methyl-1H-indazol-5-yl)phenyl)-1-((1-(1-hydroxycyclopropanecarbonyl)azetidin-3-yl)methyl)-4,4-dimethyl-1H-imidazol-5(4H)-one], in that order: more than 10000 nM, 537 nM, 447 nM and 3090 nM.
On to `CC1(C)N=C(c2ccc(-c3ccc(-c4ccncc4)cc3)cc2F)N(CC2CN(C(=O)C3CC3)C2)C1=O` [Compound 22, 1-((1-(cyclopropanecarbonyl)azetidin-3-yl)methyl)-2-(3-fluoro-4′-(pyridin-4-yl)-[1,1′-biphenyl]-4-yl)-4,4-dimethyl-1H-imidazol-5(4H)-one], for which the IC50 is more than 10000 nM in the assay on A2780 ovarian cells (setting [4]), approximately 269 nM in the assay on A2780 ovarian cells (setting [3]), 224 nM in assay [1] and 813 nM in assay [2].
In the case of `Cn1cc(-c2ccc(-c3ccc(C4=NC(C)(C)C(=O)N4C[C@@H]4CCN(C(=O)C5(C)CC5)C4)c(F)c3)cc2)cn1` [Compound 74, (R)-2-(3-fluoro-4′-(1-methyl-1H-pyrazol-4-yl)-[1,1′-biphenyl]-4-yl)-4,4-dimethyl-1-((1-(1-methylcyclopropanecarbonyl)pyrrolidin-3-yl)methyl)-1H-imidazol-5(4H)-one], the IC50 with A2780 ovarian cells (setting [4]) is more than 10000 nM; with A2780 ovarian cells (setting [3]) it was 3.89 nM; in assay [1] it was approximately 8.32 nM; in assay [2], 11.5 nM.
Consider `COCC1(C)N=C(c2ccc(-c3ccc4occc4c3)cc2)N(C[C@@H]2CCN(C(=O)C3CC3)C2)C1=O` (mixture of isomers) [Compound 8, (4RS)-2-(4-(Benzofuran-5-yl)phenyl)-1-(((R)-1-(cyclopropanecarbonyl)pyrrolidin-3-yl)methyl)-4-(methoxymethyl)-4-methyl-1H-imidazol-5(4H)-one], for which the IC50 in the assay on A2780 ovarian cells (setting [4]) was more than 10000 nM; in the assay with A2780 ovarian cells (setting [3]) it was 1150 nM; in assay [1] it was 1290 nM; in assay [2], 2570 nM.
For `CC1(C)N=C(c2ccc(-c3c[nH]c4ccccc34)cc2)N(C[C@@H]2CCN(C(=O)C3CC3)C2)C1=O` [Compound 65, (R)-2-(4-(1H-indol-3-yl)phenyl)-1-((1-(cyclopropanecarbonyl)pyrrolidin-3-yl)methyl)-4,4-dimethyl-1H-imidazol-5(4H)-one], in that order: more than 10000 nM, 263 nM, approximately 912 nM and 1260 nM.
For the compound `CC1(C)N=C(c2ccc(-c3nc4ccccc4o3)cc2)N(C[C@@H]2CCN(C(=O)C3CC3)C2)C1=O` [Compound 11, (R)-2-(4-(benzo[d]oxazol-2-yl)phenyl)-1-((1-(cyclopropanecarbonyl)pyrrolidin-3-yl)methyl)-4,4-dimethyl-1H-imidazol-5(4H)-one], the IC50 was more than 10000 nM with A2780 ovarian cells (setting [4]), 3720 nM with A2780 ovarian cells (setting [3]), approximately 2000 nM in assay [1] and approximately 10000 nM in assay [2].
With `CC1(C)N=C(c2ccc(-c3c[nH]c4ccccc34)cc2F)N(CC2CN(C(=O)C3CC3)C2)C1=O` [Compound 62, 1-((1-(cyclopropanecarbonyl)azetidin-3-yl)methyl)-2-(2-fluoro-4-(1H-indol-3-yl)phenyl)-4,4-dimethyl-1H-imidazol-5(4H)-one], the IC50 in assay [1] was 1200 nM; in assay [2], 776 nM.
On to `Cn1ncc2cc(-c3ccc(C4=NC(C)(C)C(=O)N4C[C@@H]4CCN(C(=O)C5CC5)C4)c(F)c3)ccc21` [Compound 53, (R)-1-((1-(cyclopropanecarbonyl)pyrrolidin-3-yl)methyl)-2-(2-fluoro-4-(1-methyl-1H-indazol-5-yl)phenyl)-4,4-dimethyl-1H-imidazol-5(4H)-one], for which the IC50 in assay [1] was 132 nM; in assay [2], 724 nM.
In the case of `CC1(C)N=C(c2ccc(-c3ccc4cc(F)ccc4c3)cc2F)N(CC2CN(C(=O)C3CC3)C2)C1=O` [Compound 54, 1-((1-(cyclopropanecarbonyl)azetidin-3-yl)methyl)-2-(2-fluoro-4-(6-fluoronaphthalen-2-yl)phenyl)-4,4-dimethyl-1H-imidazol-5(4H)-one], the IC50 in assay [1] was 129 nM; in assay [2], 407 nM.
For `CC1(C)N=C(c2ccc(-c3ccc4cnccc4c3)cc2F)N(CC2CN(C(=O)C3CC3)C2)C1=O` [Compound 56, 1-((1-(cyclopropanecarbonyl)azetidin-3-yl)methyl)-2-(2-fluoro-4-(isoquinolin-6-yl)phenyl)-4,4-dimethyl-1H-imidazol-5(4H)-one], in that order: 63.1 nM and 339 nM.

The record behind these values is US10413545B2, “Imidazolin-5-one derivative useful as FASN inhibitors for the treatment of cancer” (Janssen Pharmaceutica NV, priority 2013, dated 2019).
